Test results published in PubChem BioAssay AID330 (DTP/NCI, 2004).
“And” between values parts separate entries of the source, which are not always exact repeats. Equal values may be shown once. Inconclusive results and toxic doses are left out. How the source made its calls: active means survival T/C of 150% or more; inactive means T/C below 125% in these data.

Test system: P388 leukemia ip, CD2F1 mice, survival T/C
Assay: NCI In Vivo Anticancer Drug Screen. Data for tumor model P388 Leukemia (intraperitoneal) in CD2F1 (CDF1) mice
Details: endpoint: median survival time, higher = longer survival
Method in brief: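 Mice carrying the transplanted tumor received test compound or vehicle. Survival was recorded in each group, and the value is the treated-group measurement divided by that of the vehicle-treated control group.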

[1] = dose: 60.0 mg/kg/injection, schedule: Q01DX005 (ip), vehicle: saline with Tween-80
[2] = dose: 120.0 mg/kg/injection, schedule: Q01DX005 (ip), vehicle: saline with Tween-80
[3] = dose: 240.0 mg/kg/injection, schedule: Q01DX005 (ip), vehicle: saline with Tween-80
[4] = dose: 50.0 mg/kg/injection, schedule: Q01DX009 (ip), vehicle: saline with Tween-80
[5] = dose: 100.0 mg/kg/injection, schedule: Q01DX009 (ip), vehicle: saline with Tween-80
[6] = dose: 200.0 mg/kg/injection, schedule: Q01DX009 (ip), vehicle: saline with Tween-80
[7] = dose: 50.0 mg/kg/injection, schedule: Q04DX003 (ip), vehicle: saline
[8] = dose: 50.0 mg/kg/injection, schedule: Q01DX005 (ip), vehicle: saline
[9] = dose: 100.0 mg/kg/injection, schedule: Q01DX005 (ip), vehicle: saline
[10] = dose: 200.0 mg/kg/injection, schedule: Q01DX005 (ip), vehicle: saline
[11] = dose: 50.0 mg/kg/injection, schedule: Q04DX003 (ip), vehicle: saline with Tween-80
[12] = dose: 100.0 mg/kg/injection, schedule: Q04DX003 (ip), vehicle: saline with Tween-80

Measured: T/C

CC12CC(OC(=O)[C@]1(C)O)[C@@H]([C@]1(O)CC[C@H]3[C@@H]4C[C@H]5O[C@]56[C@@H](O)C=CC(=O)[C@]6(C)[C@H]4CC[C@@]31C)C2 (some centres undefined)
inactive: dose: 2.0 mg/kg/injection, schedule: Q01DX009 (ip), vehicle: saline + alcohol 100 % of control | dose: 4.0 mg/kg/injection, schedule: Q01DX005 (ip), vehicle: saline + alcohol 108 % of control and 120 % of control | dose: 4.0 mg/kg/injection, schedule: Q01DX009 (ip), vehicle: saline + alcohol 105 % of control | dose: 8.0 mg/kg/injection, schedule: Q01DX005 (ip), vehicle: saline + alcohol 110 % of control and 111 % of control | dose: 8.0 mg/kg/injection, schedule: Q01DX009 (ip), vehicle: saline + alcohol 96 % of control | dose: 16.0 mg/kg/injection, schedule: Q01DX005 (ip), vehicle: saline + alcohol 109 % of control and 111 % of control | dose: 16.0 mg/kg/injection, schedule: Q01DX009 (ip), vehicle: saline + alcohol 96 % of control | dose: 32.0 mg/kg/injection, schedule: Q01DX005 (ip), vehicle: saline + alcohol 107 % of control | dose: 32.0 mg/kg/injection, schedule: Q01DX009 (ip), vehicle: saline + alcohol 87 % of control

c1ccc(P23(Oc4ccccc4S2)Oc2ccccc2S3)cc1
inactive: dose: 100.0 mg/kg/injection, schedule: Q04DX003 (ip), vehicle: Klucel (hydroxypropylcellulose) (HPC) 93 % of control | dose: 200.0 mg/kg/injection, schedule: Q04DX003 (ip), vehicle: Klucel (hydroxypropylcellulose) (HPC) 90 % of control | dose: 400.0 mg/kg/injection, schedule: Q04DX003 (ip), vehicle: Klucel (hydroxypropylcellulose) (HPC) 91 % of control

CC(=O)OC1C(=O)C=C(C)OC1=O (centres undefined)
inactive: [1] 102 % of control | [2] 99 % of control | [3] 106 % of control

N#C/C(=C1/NC(=O)c2ccccc21)c1nc2ccccc2s1
inactive: [4] 89 % of control | [5] 90 % of control | [6] 96 % of control

COc1ccc(OC)c(C(=O)C[n+]2ccccc2)c1
inactive: dose: 12.5 mg/kg/injection, schedule: Q04DX003 (ip), vehicle: saline 95 % of control | dose: 25.0 mg/kg/injection, schedule: Q04DX003 (ip), vehicle: saline 90 % of control | [7] 100 % of control

CN(C)C(=S)n1c(=S)nc(N(C)C)sc1=S
inactive: dose: 12.5 mg/kg/injection, schedule: Q01DX005 (ip), vehicle: saline with Tween-80 103 % of control | dose: 25.0 mg/kg/injection, schedule: Q01DX005 (ip), vehicle: saline with Tween-80 108 % of control | dose: 50.0 mg/kg/injection, schedule: Q01DX005 (ip), vehicle: saline with Tween-80 108 % of control and 113 % of control | dose: 100.0 mg/kg/injection, schedule: Q01DX005 (ip), vehicle: saline with Tween-80 109 % of control

COC(=O)/C=N/Nc1ccc(C)cc1
inactive: dose: 25.0 mg/kg/injection, schedule: Q01DX009 (ip), vehicle: other 89 % of control | dose: 50.0 mg/kg/injection, schedule: Q01DX009 (ip), vehicle: other 86 % of control | dose: 100.0 mg/kg/injection, schedule: Q01DX009 (ip), vehicle: other 96 % of control | dose: 200.0 mg/kg/injection, schedule: Q01DX009 (ip), vehicle: other 103 % of control | dose: 400.0 mg/kg/injection, schedule: Q01DX009 (ip), vehicle: other 108 % of control

NN1C(=O)C2C3C=CC(O3)C2C1=O (centres undefined)
inactive: [8] 98 % of control | [9] 98 % of control | [10] 100 % of control

COc1cc2c(cc1OC(C)=O)C(=O)CCC=C2
inactive: dose: 33.0 mg/kg/injection, schedule: Q04DX003 (ip), vehicle: saline 100 % of control | [7] 104 % of control | dose: 75.0 mg/kg/injection, schedule: Q04DX003 (ip), vehicle: saline 112 % of control | dose: 400.0 mg/kg/injection, schedule: Q04DX003 (ip), vehicle: saline 120 % of control

CC1COCCOCCOCC(C)OC(=O)COCC(=O)O1 (centres undefined)
inactive: dose: 50.0 mg/kg/injection, schedule: Q01DX009 (ip), vehicle: Klucel (hydroxypropylcellulose) (HPC) 99 % of control | dose: 100.0 mg/kg/injection, schedule: Q01DX009 (ip), vehicle: Klucel (hydroxypropylcellulose) (HPC) 101 % of control | dose: 200.0 mg/kg/injection, schedule: Q01DX009 (ip), vehicle: Klucel (hydroxypropylcellulose) (HPC) 105 % of control

NC(=S)NC12CC3CC(CC(C3)C1)C2
inactive: dose: 50.0 mg/kg/injection, schedule: Q04DX002 (ip), vehicle: saline with Tween-80 99 % of control | dose: 100.0 mg/kg/injection, schedule: Q04DX002 (ip), vehicle: saline with Tween-80 98 % of control | dose: 200.0 mg/kg/injection, schedule: Q04DX002 (ip), vehicle: saline with Tween-80 98 % of control

CCCC1C(=O)N2C(N(C)C)=Nc3ccc(C)cc3N2C1=O (centres undefined)
inactive: dose: 50.0 mg/kg/injection, schedule: Q01DX009 (ip), vehicle: suspension in saline 101 % of control | dose: 100.0 mg/kg/injection, schedule: Q01DX009 (ip), vehicle: suspension in saline 104 % of control | dose: 200.0 mg/kg/injection, schedule: Q01DX009 (ip), vehicle: suspension in saline 106 % of control | dose: 400.0 mg/kg/injection, schedule: Q01DX009 (ip), vehicle: suspension in saline 97 % of control

CC(=O)N1CCc2cc([N+](=O)[O-])cc(Br)c21
inactive: dose: 12.5 mg/kg/injection, schedule: Q01DX009 (ip), vehicle: distilled water + Tween-80 107 % of control | dose: 25.0 mg/kg/injection, schedule: Q01DX009 (ip), vehicle: distilled water + Tween-80 98 % of control | dose: 50.0 mg/kg/injection, schedule: Q01DX009 (ip), vehicle: distilled water + Tween-80 91 % of control | dose: 100.0 mg/kg/injection, schedule: Q01DX009 (ip), vehicle: distilled water + Tween-80 98 % of control | dose: 200.0 mg/kg/injection, schedule: Q01DX009 (ip), vehicle: distilled water + Tween-80 91 % of control

O=C(CC1=NC2NN(c3ccccc3)C(=O)C2=C1CC(=O)c1cccc([N+](=O)[O-])c1)c1cccc([N+](=O)[O-])c1 (centres undefined)
inactive: [1] 95 % of control | [2] 99 % of control | [3] 86 % of control

CCCCS(=N)(=O)CCC(N)P(=O)(O)O (centres undefined)
inactive: [8] 93 % of control | [9] 100 % of control | [10] 95 % of control

O=C1C=C(O/C=C/C(C(F)(F)F)C(F)(F)F)C(=O)c2ccccc21
inactive: [4] 115 % of control | [11] 91 % of control | [12] 95 % of control

CN1CCN(CCCO)CC1
inactive: [8] 105 % of control | [9] 97 % of control | [10] 104 % of control

[N-]=[N+]=Nc1ccccc1C(=O)Nc1ccccc1C(N)=O
inactive: dose: 100.0 mg/kg/injection, schedule: Q04DX002 (ip), vehicle: Klucel (hydroxypropylcellulose) (HPC) 101 % of control | dose: 200.0 mg/kg/injection, schedule: Q04DX002 (ip), vehicle: Klucel (hydroxypropylcellulose) (HPC) 104 % of control | dose: 400.0 mg/kg/injection, schedule: Q04DX002 (ip), vehicle: Klucel (hydroxypropylcellulose) (HPC) 104 % of control

COC(=O)C1=NNC2(c3ccccc3Sc3ccccc32)C1C(=O)OC (centres undefined)
inactive: dose: 50.0 mg/kg/injection, schedule: Q01DX005 (ip), vehicle: Klucel (hydroxypropylcellulose) (HPC) 90 % of control | dose: 100.0 mg/kg/injection, schedule: Q01DX005 (ip), vehicle: Klucel (hydroxypropylcellulose) (HPC) 92 % of control | dose: 200.0 mg/kg/injection, schedule: Q01DX005 (ip), vehicle: Klucel (hydroxypropylcellulose) (HPC) 90 % of control

CC1OC(OCc2ccc(-c3ccccc3)cc2)CC(N)C1O (centres undefined)
inactive: dose: 1.56 mg/kg/injection, schedule: Q01DX009 (ip), vehicle: water 99 % of control | dose: 3.13 mg/kg/injection, schedule: Q01DX009 (ip), vehicle: water 104 % of control | dose: 6.25 mg/kg/injection, schedule: Q01DX009 (ip), vehicle: water 107 % of control | dose: 12.5 mg/kg/injection, schedule: Q01DX009 (ip), vehicle: water 108 % of control | dose: 25.0 mg/kg/injection, schedule: Q01DX009 (ip), vehicle: water 98 % of control

CCCCCCC1=NC(C)(C)CO1
inactive: [4] 100 % of control | [11] 100 % of control | [5] 104 % of control | [12] 100 % of control | [6] 100 % of control | dose: 200.0 mg/kg/injection, schedule: Q04DX003 (ip), vehicle: saline with Tween-80 109 % of control

CN(C)S(=O)(=O)Nc1ccccn1
inactive: [4] 106 % of control | [5] 92 % of control | [6] 86 % of control
